The subject of one assay is ENT1. Nature of the assay: Cell surface biotinylation and internalization assay. It is filed as cell-based, human. Particulars: 50 µM, 24 h or 48 h, PK15NTD cells. As for the experimental part: (§1) To label all surface proteins, after washing with ice-cold PBS, PK15NTD/ENT1 and PK15NTD/ENT2 cells were incubated with sulfo-NHS-SS-biotin (300 μg/ml) for 30 min at 4°C to biotinylate cell surface proteins. The unbound biotin was washed away by PBS containing 0.1% BSA at 4°C. The biotinylated cells were then incubated with the original growth media with or without 50 µM compound 3c and returned to the 5% CO2 incubator at 37 °C for 24 h or 48 h for transporter internalization. Transporter trafficking was stopped by rapidly cooling the cells at 4°C. […]
(§2) FIGURE 5 Effects of compound 3c on cytotoxicity and protein expressions of ENT1 and ENT2. Cytotoxicity of compound 3c was measured after 24 h or 48 h treatment of PK15NTD/ENT1 and PK15NTD/ENT2 cells with various concentrations of compound 3c (0.5, 5 and 50 μM) or a vehicle (0.5% DMSO, as a control) (A) The cell viability and (B) cell membrane integrity were determined by the MTT assay and LDH release, respectively (C) PK15NTD/ENT1 and (D) PK15NTD/ENT2 cells were incubated with 50 μM of compound 3c or a vehicle (0.5% DMSO, as a control) for 24 or 48 h. […] After cleavage of extracellular biotin, internalized biotinylated proteins were precipitated with immobilized streptavidin beads and detected with an anti-ENT1 and anti-ENT2 antibodies by western blotting. […]

A further assay relates to ENT2. The assay is described as above. The assay is classed as cell-based, human. Particulars: 50 µM, 24 h or 48 h, PK15NTD cells. As for the experimental part:
as §1, §2

Consider `Cc1cccc(Nc2nc(N)nc(CN3CCN(c4ccc(F)cc4)CC3)n2)c1` [Compound 3c], for which the “location of biotinylated ENT1 (internalization)” value in the assay with ENT1 is on record as “exclusively found at the plasma membrane”. In the assay with ENT2, the “location of biotinylated ENT2 (internalization)” value is on record as “exclusively found at the plasma membrane”.

Source of the values: PMC8899516, “Structure-Activity Relationship Studies of 4-((4-(2-fluorophenyl)piperazin-1-yl)methyl)-6-imino-N-(naphthalen-2-yl)-1,3,5-triazin-2-amine (FPMINT) Analogues as Inhibitors of Human Equilibrative Nucleoside Transporters” (Frontiers in Pharmacology, 2022).
